From ChEMBL document CHEMBL3808363, “2-(Thienothiazolylimino)-1,3-thiazolidin-4-ones inhibit cell division cycle 25 A phosphatase” (Bioorg Med Chem, 2016)
The source made the active and inactive calls. No cut-off for these calls is given here.

Assays:
MCF7 [1] = test: Cytotoxicity against human MCF7 cells assessed as inhibition of cell growth at IC50 concentration after 72 hrs by trypan blue assay; format: functional
MDA-MB-231 [2] = test: Increase in peroxynitryl radical levels in human MDA-MB-231 cells at IC50 concentration incubated for 24 hrs by DHR dye based flow cytometry; format: functional, cell-based
[3] = target: T1, M-phase inducer phosphatase 1 (Homo sapiens, UniProt P30304); test: Mixed type inhibition of human recombinant full length GST-tagged CDC25A transfected in Escherichia coli BL21-DE3 assessed as enzyme/inhibitor complex using 3-O-methylfluorescein phosphate as substrate at 5 uM incubated for 20 mins followed by substrate addition measured every 10 mins for 2 hrs by fluorimetric assay
T1 sequence (P30304 whole entry): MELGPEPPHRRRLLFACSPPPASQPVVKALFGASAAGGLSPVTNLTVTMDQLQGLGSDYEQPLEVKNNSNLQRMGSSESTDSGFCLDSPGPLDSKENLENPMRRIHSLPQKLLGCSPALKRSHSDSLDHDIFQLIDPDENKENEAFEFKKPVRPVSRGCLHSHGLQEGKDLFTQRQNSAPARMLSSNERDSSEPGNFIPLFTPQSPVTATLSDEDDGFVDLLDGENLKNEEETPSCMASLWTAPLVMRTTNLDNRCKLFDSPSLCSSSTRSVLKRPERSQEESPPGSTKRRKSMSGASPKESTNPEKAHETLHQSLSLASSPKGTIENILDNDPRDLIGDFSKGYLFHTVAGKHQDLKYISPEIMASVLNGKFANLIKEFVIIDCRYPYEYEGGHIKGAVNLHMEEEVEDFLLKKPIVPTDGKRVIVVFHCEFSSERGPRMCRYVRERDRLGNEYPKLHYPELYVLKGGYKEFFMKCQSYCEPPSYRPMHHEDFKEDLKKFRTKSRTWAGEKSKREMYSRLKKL

[4] = target: T2, M-phase inducer phosphatase 1 (Homo sapiens) (UniProt P30304); test: Inhibition of human recombinant full length GST-tagged CDC25A transfected in Escherichia coli BL21-DE3 using 3-O-methylfluorescein phosphate as substrate at 10 uM incubated for 20 mins followed by substrate addition measured every 10 mins for 2 hrs by fluorimetric assay in presence of 0.1% BSA
T2 sequence (whole entry): T1 sequence (P30304 whole entry)

MCF7 [5] = test: Antiproliferative activity against human MCF7 cells assessed as cell viability at IC50 concentration after 48 hrs by 2',7'-dichlorofluorescin diacetate/PI staining based flow cytometry; format: functional
MDA-MB-231 [6] = test: Increase in RNS levels in human MDA-MB-231 cells at IC50 concentration incubated for 24 hrs by DAF-2DA dye based flow cytometry; format: functional, cell-based
MDA-MB-231 [7] = test: Cell cycle arrest in human MDA-MB-231 cells assessed as accumulation at G2/M phase at IC50 concentration after 48 hrs by propidium iodide staining-based flow cytometry (reference value: 20.9 +/- 1.1%); format: functional
[8] = target: T2, M-phase inducer phosphatase 1 (Homo sapiens); test: Inhibition of human recombinant full length GST-tagged CDC25A transfected in Escherichia coli BL21-DE3 using 3-O-methylfluorescein phosphate as substrate at 10 uM incubated for 20 mins followed by substrate addition measured every 10 mins for 2 hrs by fluorimetric assay in presence of 0.025% triton X 100
MCF7 [9] = test: Induction of autophagy in human MCF7 cells assessed as acidic vesicles at 5.1 uM over 3 days by acridine orange dye based flow cytometry; format: functional, cell-based
MCF7 [10] = test: Induction of apoptosis in human MCF7 cells assessed as chromatin condensation after 24 to 48 hrs by DAPI staining based UV fluorescent microscopy; format: functional, cell-based
[11] = Cytotoxicity against human HCT116 cells assessed as inhibition of cell growth after 72 hrs by MTT assay; format: functional, cell-based; settings: HCT-116, 72 h
MDA-MB-231 [12] = test: Antiproliferative activity against human MDA-MB-231 cells assessed as cell viability at IC50 concentration after 48 hrs by 2',7'-dichlorofluorescin diacetate/PI staining based flow cytometry; format: functional
MCF7 [13] = test: Induction of apoptosis in human MCF7 cells assessed as nuclear fragmentation after 24 hrs by dihydro-rhodamine 123/hoechst […] staining based UV fluorescent microscopy; format: functional, cell-based
[14] = target: T2, M-phase inducer phosphatase 1 (Homo sapiens); test: Inhibition of human recombinant full length GST-tagged CDC25A transfected in Escherichia coli BL21-DE3 using 3-O-methylfluorescein phosphate as substrate at 10 uM incubated for 20 mins followed by substrate addition measured every 10 mins for 2 hrs by fluorimetric assay in presence of 0.01% triton X 100
MCF7 [15] = test: Induction of reactive oxygen species production in human MCF7 cells at IC50 concentration up to 6 hrs by DCF-2DA dye based flow cytometry; format: functional, cell-based
MDA-MB-231 [16] = test: Cytotoxicity against human MDA-MB-231 cells assessed as inhibition of cell growth after 72 hrs by MTT assay; format: functional, cell-based; settings: MDA-MB-231, 72 h
MDA-MB-231 [17] = test: Induction of apoptosis in human MDA-MB-231 cells assessed as nuclear fragmentation after 24 hrs by dihydro-rhodamine 123/hoechst […] staining based UV fluorescent microscopy; format: functional, cell-based
MCF7 [18] = test: Cell cycle arrest in human MCF7 cells assessed as accumulation at subG1 phase at IC50 concentration after 48 hrs by propidium iodide staining-based flow cytometry; format: functional
MDA-MB-231 [19] = test: Cytostatic activity against human MDA-MB-231 cells at IC50 concentration; format: functional, cell-based
MCF7 [20] = test: Cell cycle arrest in human MCF7 cells assessed as accumulation at G2/M phase at IC50 concentration after 48 hrs by propidium iodide staining-based flow cytometry (reference value: 13.8 +/- 1%); format: functional
MCF7 [21] = test: Increase in RNS levels in human MCF7 cells at IC50 concentration incubated for 24 hrs by DAF-2DA dye based flow cytometry; format: functional, cell-based
MCF7 [22] = test: Cytotoxicity against human MCF7 cells assessed as inhibition of cell growth after 72 hrs by MTT assay; format: functional, cell-based; settings: MCF7, 72 h
MCF7 [23] = test: Cytostatic activity against human MCF7 cells at IC50 concentration; format: functional, cell-based
MCF7 [24] = test: Cell cycle arrest in human MCF7 cells assessed as accumulation at S phase at IC50 concentration after 48 hrs by propidium iodide staining-based flow cytometry (reference value: 19.5 +/- 0.6%); format: functional
[25] = target: T1, M-phase inducer phosphatase 1; test: Inhibition of human recombinant full length GST-tagged CDC25A transfected in Escherichia coli BL21-DE3 using 3-O-methylfluorescein phosphate as substrate incubated for 20 mins followed by substrate addition measured every 10 mins for 2 hrs by fluorimetric assay
[26] = target: T1, M-phase inducer phosphatase 1; test: Mixed type inhibition of human recombinant full length GST-tagged CDC25A transfected in Escherichia coli BL21-DE3 assessed as enzyme/substrate/inhibitor complex using 3-O-methylfluorescein phosphate as substrate at 20 uM incubated for 20 mins followed by substrate addition measured every 10 mins for 2 hrs by fluorimetric assay
[27] = target: T2, M-phase inducer phosphatase 1 (Homo sapiens); test: Inhibition of human recombinant full length GST-tagged CDC25A transfected in Escherichia coli BL21-DE3 using 3-O-methylfluorescein phosphate as substrate at 10 uM incubated for 20 mins followed by substrate addition measured every 10 mins for 2 hrs by fluorimetric assay in presence of 0.5% triton X 100
HT-29 = test: Cytotoxicity against human HT-29 cells assessed as inhibition of cell growth after 72 hrs by MTT assay; format: functional, cell-based; settings: HT-29, 72 h

COc1ccc(/C=C2/S/C(=N\c3nc4cc(-c5ccc(Cl)cc5)sc4s3)NC2=O)cc1
growth inhibition (GI) (MCF7 [1]): 45%
Activity (MDA-MB-231 [2]): Active
Ki [3]: 37.1 µM
inhibition [4]: 21.8%
Activity (MCF7 [5]): inactive
Activity (MDA-MB-231 [6]): Active
Activity (MDA-MB-231 [7]): 15.9%
inhibition [8]: 27.1%
Activity (MCF7 [9]): inactive
Activity (MCF7 [10]): inactive
IC50 [11]: 9.2 µM
Activity (MDA-MB-231 [12]): inactive
Activity (MCF7 [13]): inactive
inhibition [14]: 28.2%
Activity (MCF7 [15]): inactive
IC50 (MDA-MB-231 [16]): 8.4 µM
Activity (MDA-MB-231 [17]): inactive
Activity (MCF7 [18]): inactive
Activity (MDA-MB-231 [19]): Active
Activity (MCF7 [20]): 15.8%
Activity (MCF7 [21]): Active
IC50 (MCF7 [22]): 5.1 µM
Activity (MCF7 [23]): Active
Activity (MCF7 [24]): 25.3%
IC50 [25]: 6.2 µM
Ki [26]: 3.9 µM
inhibition [27]: 97.5%
IC50 (HT-29): 10.3 µM
